The values that follow come from patent US7799797B2, “Arylsulfonyl naphthalene derivatives and uses thereof” (Roche Palo Alto LLC, priority 2006, dated 2010).

Molecules are shown by their SMILES.

Test [1] has as its target T1, recombinant human 5-HT6 receptor (Homo sapiens, UniProt P50406).
T1 construct: expressed in transfected cells
Nature of the test: Radioligand binding, [3H]LSD competition in HEK293 cell membranes. As to conditions: [3H]LSD displacement, pH 7.4, 37° C., read-out: pKi for 5-HT6 (converted). The method, then: (§1) The binding activity of compounds of this invention in vitro was determined as follows. Duplicate determinations of 5-HT6 ligand affinity were made by competing for binding of [^3H]LSD in cell membranes derived from HEK293 cells stably expressing recombinant human 5-HT6 receptor. Duplicate determinations of 5-HT2A ligand affinity were made by competing for binding of [^3H]Ketanserin (3-(2-(4-(4-fluorobenzoyl)piperidinol)ethyl)-2,4(1H, 3H)-quinazolinedione) in cell membranes derived from CHO-K1 cells stably expressing recombinant human 5-HT2A receptor. Membranes were prepared from HEK 293 cell lines by the method described by Monsma et al., Molecular Pharmacology, Vol. 43 pp. 320-327 (1993), and from CHO-K1 cell lines as described by Bonhaus et al., Br J. Pharmacol. June; 115(4):622-8 (1995).
(§2) For estimation of affinity at the 5-HT6 receptor, all determinations were made in assay buffer containing 50 mM Tris-HCl, 10 mM MgSO4, 0.5 mM EDTA, 1 mM ascorbic acid, pH 7.4 at 37° C., in a 250 microliter reaction volume. […]
(§3) Assay tubes containing [^3H] […] LSD or [^3H]Ketanserin were determined as radioactive counts per minute using Packard TopCount.
(§4) Displacement of [^3H]LSD or [^3H]Ketanserin from the binding sites was quantified by fitting concentration-binding data to a 4-parameter logistic equation: […]

The target in test [2] is T2, recombinant human 5-HT2A receptor (Homo sapiens, UniProt P28223).
T2 construct: expressed in transfected cells
T2 sequence (P28223 whole entry): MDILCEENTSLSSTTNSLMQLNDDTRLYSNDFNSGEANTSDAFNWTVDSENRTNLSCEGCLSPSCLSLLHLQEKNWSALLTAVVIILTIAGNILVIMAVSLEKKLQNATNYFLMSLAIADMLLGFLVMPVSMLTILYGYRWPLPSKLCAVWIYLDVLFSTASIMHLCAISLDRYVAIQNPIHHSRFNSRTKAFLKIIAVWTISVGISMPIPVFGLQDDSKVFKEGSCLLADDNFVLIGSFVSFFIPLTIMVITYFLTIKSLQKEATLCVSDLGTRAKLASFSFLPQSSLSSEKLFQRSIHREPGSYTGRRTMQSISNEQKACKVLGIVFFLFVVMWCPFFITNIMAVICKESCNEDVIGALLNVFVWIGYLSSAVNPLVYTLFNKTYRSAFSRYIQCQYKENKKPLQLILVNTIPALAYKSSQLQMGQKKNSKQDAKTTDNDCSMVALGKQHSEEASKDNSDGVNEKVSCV
Nature of the test: Radioligand binding, [3H]Ketanserin competition in CHO-K1 cell membranes. As to conditions: [3H]Ketanserin displacement, pH 7.4, 32° C., read-out: pKi for 5-HT2A (converted). As to the method:
as §1, §2, §3, §4

T1 sequence (P50406 whole entry): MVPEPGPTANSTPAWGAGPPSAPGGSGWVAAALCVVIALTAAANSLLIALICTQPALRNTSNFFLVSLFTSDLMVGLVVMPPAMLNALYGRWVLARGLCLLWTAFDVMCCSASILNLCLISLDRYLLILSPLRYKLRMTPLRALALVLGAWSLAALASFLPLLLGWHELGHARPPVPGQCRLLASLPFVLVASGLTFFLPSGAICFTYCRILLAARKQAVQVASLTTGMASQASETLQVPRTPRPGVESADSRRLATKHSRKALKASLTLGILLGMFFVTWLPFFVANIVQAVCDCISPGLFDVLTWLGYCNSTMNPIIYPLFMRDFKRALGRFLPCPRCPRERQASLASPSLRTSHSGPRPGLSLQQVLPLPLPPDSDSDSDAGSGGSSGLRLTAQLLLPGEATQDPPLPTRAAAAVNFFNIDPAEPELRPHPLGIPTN

In the case of `CNCc1cccc2cc(S(=O)(=O)c3ccccc3)ccc12` [Compound 1, (6-Benzenesulfonyl-naphthalen-1-ylmethyl)-methyl-amine], the Ki in test [1] is about 0.447 nM. Consider `NCc1cccc2cc(S(=O)(=O)c3cccc(F)c3)ccc12` [Compound 2, C-[6-(3-Fluoro-benzenesulfonyl)-naphthalen-1-yl]-methylamine], for which the Ki in test [2] was about 5.01 nM.
